Assay results taken from PMC12517324, “Hyperagonism of a Vitamin D Receptor Agonist/Histone Deacetylase Inhibitor Hybrid Molecule” (Journal of Medicinal Chemistry, 2025).

System: B16–F10 cells
Assay: RNaseq gene expression profiling
Type: cell-based, mouse
Settings: RNAseq
Description: AC-340 superinduced CYP24A1 expression in all cell lines tested, and ZG-126 appeared to be a hyperagonist in SK-MEL-28 cells. […] AC-340 treatment produced 3 times more differentially expressed genes (DEGs) than AM-193, with ZG-126 producing an intermediate number (Figure A). […] The varying effects of each treatment on the numbers of regulated genes and the fold changes observed are reflected in plots of log-fold changes and volcano plots (Figure S3B).
A quality control was performed before sequencing in paired-end at 50 M reads by Illumina NovaSeq 6000 S4 PE100. After sequencing, the FASTQ files were sent to us and all downstream analysis were performed on Galaxy (Galaxy (usegalaxy.org)). First, trimmomatic tool was used to remove the adapters from the reads. Then, using the alignment tool, HISAT2, the reads were mapped to the mouse genome. In the next step, the counted reads were annotated and finally the list of differentially expressed genes (DEGs) for each treatment was obtained using the preinstalled R package called Limma.

SMILES: CCC(CC)(c1ccc(OCCCCCC(=O)NO)cc1)c1ccc(OCC(O)C(C)(C)C)c(C)n1 (stereo not shown) [AM-193]
- logFC Acat2 (gene Acat2, AM193-significant genes): -0.7924
- logFC Agt (gene Agt, AM193-significant genes): -0.9491
- logFC Aimp2 (gene Aimp2, AM193-significant genes): -0.7904
- logFC Alyref (gene Alyref, AM193-significant genes): -0.7893
- logFC Anln (gene Anln, AM193-significant genes): -0.751
- logFC Aurkb (gene Aurkb, AM193-significant genes): -0.7442
- logFC B3galt5 (gene B3galt5, AM193-significant genes): -0.7772
- logFC Bhlhe40 (gene Bhlhe40, AM193-significant genes): -0.9608
- logFC Birc5 (gene Birc5, AM193-significant genes): -0.9013
- logFC Bnip1 (gene Bnip1, AM193-significant genes): -0.7195
- logFC Bora (gene Bora, AM193-significant genes): -0.8854
- logFC Brca1 (gene Brca1, AM193-significant genes): -0.7501
- logFC Bsn (gene Bsn, AM193-significant genes): -0.8525
- logFC Cad (gene Cad, AM193-significant genes): -1.103
- logFC Calr (gene Calr, AM193-significant genes): -0.7283
- logFC Ccl5 (gene Ccl5, AM193-significant genes): -0.8403
- logFC Ccna2 (gene Ccna2, AM193-significant genes): -0.7214
- logFC Ccnb1 (gene Ccnb1, AM193-significant genes): -0.7431
- logFC Ccnf (gene Ccnf, AM193-significant genes): -0.8441
- logFC Cd3eap (gene Cd3eap, AM193-significant genes): -0.7422
- logFC Cdc6 (gene Cdc6, AM193-significant genes): -0.8307
- logFC Cdc20 (gene Cdc20, AM193-significant genes): -0.7899
- logFC Cdc25c (gene Cdc25c, AM193-significant genes): -0.8576
- logFC Cdk1 (gene Cdk1, AM193-significant genes): -0.7282
- logFC Cdk2 (gene Cdk2, AM193-significant genes): -0.7948
- logFC Cenpa (gene Cenpa, AM193-significant genes): -0.7639
- logFC Cenpn (gene Cenpn, AM193-significant genes): -0.717
- logFC Cep152 (gene Cep152, AM193-significant genes): -0.7072
- logFC Cse1l (gene Cse1l, AM193-significant genes): -0.7192
- logFC Dctd (gene Dctd, AM193-significant genes): -1.041
- logFC Ddah1 (gene Ddah1, AM193-significant genes): -1.0571
- logFC Dhcr24 (gene Dhcr24, AM193-significant genes): -1.0227
- logFC Dis3 (gene Dis3, AM193-significant genes): -0.7516
- logFC Dkc1 (gene Dkc1, AM193-significant genes): -0.7246
- logFC Dnph1 (gene Dnph1, AM193-significant genes): -0.7927
- logFC E2f8 (gene E2f8, AM193-significant genes): -0.7725
- logFC Egln1 (gene Egln1, AM193-significant genes): -1.099
- logFC Elovl6 (gene Elovl6, AM193-significant genes): -0.8086
- logFC Eme1 (gene Eme1, AM193-significant genes): -0.7703
- logFC Eps8 (gene Eps8, AM193-significant genes): -0.9363
- logFC Espl1 (gene Espl1, AM193-significant genes): -0.8155
- logFC Exosc6 (gene Exosc6, AM193-significant genes): -0.7177
- logFC Exosc8 (gene Exosc8, AM193-significant genes): -0.7524
- logFC Fam162a (gene Fam162a, AM193-significant genes): -1.049
- logFC Fam83d (gene Fam83d, AM193-significant genes): -0.8732
- logFC Fasn (gene Fasn, AM193-significant genes): -0.7289
- logFC Fdps (gene Fdps, AM193-significant genes): -0.7443
- logFC Fkbp11 (gene Fkbp11, AM193-significant genes): -1.012
- logFC Foxm1 (gene Foxm1, AM193-significant genes): -0.7084
- logFC Fubp1 (gene Fubp1, AM193-significant genes): -0.7875
- logFC Fut11 (gene Fut11, AM193-significant genes): -0.7657
- logFC Gamt (gene Gamt, AM193-significant genes): -0.9245
- logFC Gar1 (gene Gar1, AM193-significant genes): -0.799
- logFC Gcat (gene Gcat, AM193-significant genes): -1.125
- logFC Gemin4 (gene Gemin4, AM193-significant genes): -0.7731
- logFC Gins1 (gene Gins1, AM193-significant genes): -0.7214
- logFC Gjb2 (gene Gjb2, AM193-significant genes): -0.8099
- logFC Gm973 (gene Gm973, AM193-significant genes): -0.7844
- logFC Grhpr (gene Grhpr, AM193-significant genes): -0.8764
- logFC Grwd1 (gene Grwd1, AM193-significant genes): -0.9726
- logFC Gys1 (gene Gys1, AM193-significant genes): -0.7213
- logFC H1f3 (gene H1f3, AM193-significant genes): -0.9967
- logFC H1f6 (gene H1f6, AM193-significant genes): -1.042
- logFC H2ac6 (gene H2ac6, AM193-significant genes): -0.96
- logFC H2ac8 (gene H2ac8, AM193-significant genes): -0.9016
- logFC H2ac11 (gene H2ac11, AM193-significant genes): -0.8838
- logFC H2ac25 (gene H2ac25, AM193-significant genes): -0.7891
- logFC H2ax (gene H2ax, AM193-significant genes): -0.7149
- logFC H2bc6 (gene H2bc6, AM193-significant genes): -0.7735
- logFC H2bc8 (gene H2bc8, AM193-significant genes): -0.9803
- logFC H2bc9 (gene H2bc9, AM193-significant genes): -1.042
- logFC H2bc11 (gene H2bc11, AM193-significant genes): -0.7444
- logFC H2bc18 (gene H2bc18, AM193-significant genes): -0.8059
- logFC H2bu1-ps (gene H2bu1-ps, AM193-significant genes): -0.9542
- logFC H3c1 (gene H3c1, AM193-significant genes): -0.892
- logFC H3c6 (gene H3c6, AM193-significant genes): -0.7599
- logFC H3c7 (gene H3c7, AM193-significant genes): -0.9595
- logFC H4c1 (gene H4c1, AM193-significant genes): -0.7797
- logFC H4c2 (gene H4c2, AM193-significant genes): -0.7954
- logFC Higd1a (gene Higd1a, AM193-significant genes): -0.903
- logFC Hirip3 (gene Hirip3, AM193-significant genes): -0.7302
- logFC Hmga1 (gene Hmga1, AM193-significant genes): -1.033
- logFC Hmga1b (gene Hmga1b, AM193-significant genes): -1.051
- logFC Hmgb2 (gene Hmgb2, AM193-significant genes): -0.8226
- logFC Hmgcs1 (gene Hmgcs1, AM193-significant genes): -0.7755
- logFC Hmgn2 (gene Hmgn2, AM193-significant genes): -0.7752
- logFC Hpse (gene Hpse, AM193-significant genes): -0.8433
- logFC Hrob (gene Hrob, AM193-significant genes): -0.8536
- logFC Hspa5 (gene Hspa5, AM193-significant genes): -0.7657
- logFC Idi1 (gene Idi1, AM193-significant genes): -1.099
- logFC Ier3 (gene Ier3, AM193-significant genes): -0.7432
- logFC Impa2 (gene Impa2, AM193-significant genes): -0.8388
- logFC Impdh2-ps (gene Impdh2-ps, AM193-significant genes): -0.7159
- logFC Incenp (gene Incenp, AM193-significant genes): -0.7108
- logFC Ip6k3 (gene Ip6k3, AM193-significant genes): -0.7379
- logFC Irgm1 (gene Irgm1, AM193-significant genes): -0.7387
- logFC Jmjd6 (gene Jmjd6, AM193-significant genes): -0.8319
- logFC Jpt2 (gene Jpt2, AM193-significant genes): -0.8326
- logFC Kif2c (gene Kif2c, AM193-significant genes): -0.7884
- logFC Kif14 (gene Kif14, AM193-significant genes): -0.8043
- logFC Kif20b (gene Kif20b, AM193-significant genes): -0.7216
- logFC Kif22 (gene Kif22, AM193-significant genes): -0.8428
- logFC Kif23 (gene Kif23, AM193-significant genes): -0.7776
- logFC Ldha (gene Ldha, AM193-significant genes): -0.9079
- logFC Ldlr (gene Ldlr, AM193-significant genes): -0.7666
- logFC Lig1 (gene Lig1, AM193-significant genes): -0.7368
- logFC Lmnb1 (gene Lmnb1, AM193-significant genes): -0.9349
- logFC Loxl2 (gene Loxl2, AM193-significant genes): -1.106
- logFC Lpcat1 (gene Lpcat1, AM193-significant genes): -1.098
- logFC Lpgat1 (gene Lpgat1, AM193-significant genes): -0.8431
- logFC Lrp8 (gene Lrp8, AM193-significant genes): -0.9511
- logFC Lyar (gene Lyar, AM193-significant genes): -0.724
- logFC Man2a1 (gene Man2a1, AM193-significant genes): -0.7409
- logFC Mcm10 (gene Mcm10, AM193-significant genes): -0.7922
- logFC Mest (gene Mest, AM193-significant genes): -1.125
- logFC Met (gene Met, AM193-significant genes): -1.057
- logFC Mitf (gene Mitf, AM193-significant genes): -0.8034
- logFC Mki67 (gene Mki67, AM193-significant genes): -0.7294
- logFC Mxd3 (gene Mxd3, AM193-significant genes): -0.9949
- logFC Mybl2 (gene Mybl2, AM193-significant genes): -1.058
- logFC Naa10 (gene Naa10, AM193-significant genes): -0.8589
- logFC Nampt (gene Nampt, AM193-significant genes): -0.7338
- logFC Nasp (gene Nasp, AM193-significant genes): -0.9086
- logFC Nbn (gene Nbn, AM193-significant genes): -0.7109
- logFC Ndc80 (gene Ndc80, AM193-significant genes): -0.7825
- logFC Net1 (gene Net1, AM193-significant genes): -0.7159
- logFC Nhp2 (gene Nhp2, AM193-significant genes): -0.7487
- logFC Nhsl1 (gene Nhsl1, AM193-significant genes): -0.7298
- logFC Nmi (gene Nmi, AM193-significant genes): -0.8028
- logFC Noc2l (gene Noc2l, AM193-significant genes): -0.884
- logFC Nr4a1 (gene Nr4a1, AM193-significant genes): -0.9791
- logFC Nsun2 (gene Nsun2, AM193-significant genes): -0.766
- logFC P4ha2 (gene P4ha2, AM193-significant genes): -0.8086
- logFC Pbk (gene Pbk, AM193-significant genes): -0.8895
- logFC Pclaf (gene Pclaf, AM193-significant genes): -0.7086
- logFC Pfkl (gene Pfkl, AM193-significant genes): -1.068
- logFC Pfkp (gene Pfkp, AM193-significant genes): -0.83
- logFC Pgf (gene Pgf, AM193-significant genes): -1.056
- logFC Pgm1 (gene Pgm1, AM193-significant genes): -0.9062
- logFC Pgp (gene Pgp, AM193-significant genes): -0.8532
- logFC Pif1 (gene Pif1, AM193-significant genes): -0.8212
- logFC Pimreg (gene Pimreg, AM193-significant genes): -0.8591
- logFC Plekha2 (gene Plekha2, AM193-significant genes): -0.8787
- logFC Plk1 (gene Plk1, AM193-significant genes): -0.7788
- logFC Plpp5 (gene Plpp5, AM193-significant genes): -0.8001
- logFC Pmf1 (gene Pmf1, AM193-significant genes): -0.796
- logFC Pnn (gene Pnn, AM193-significant genes): -0.8904
- logFC Pold1 (gene Pold1, AM193-significant genes): -0.8466
- logFC Pold2 (gene Pold2, AM193-significant genes): -0.855
- logFC Prkcz (gene Prkcz, AM193-significant genes): -1.145
- logFC Psmb10 (gene Psmb10, AM193-significant genes): -0.8103
- logFC Ptpn6 (gene Ptpn6, AM193-significant genes): -0.8579
- logFC Rcc1 (gene Rcc1, AM193-significant genes): -0.8765
- logFC Rcc1l (gene Rcc1l, AM193-significant genes): -0.7067
